Test results: ChEMBL document CHEMBL1649426 (J Med Chem, 2011)

Key:
[1] = tested on: Human immunodeficiency virus 1; experiment: Antiviral activity against HIV1 LAI infected in human MT2 cells assessed as inhibition of virus-induced cytopathic effect by MTT assay; format: functional, organism-based; details: Human immunodeficiency virus 1, LAI
[2] = tested on: Human immunodeficiency virus 1; experiment: Antiviral activity against HIV-1 MDR/MM infected in human PHA-PBM cells assessed as inhibition of p24 Gag protein production; format: functional, organism-based; details: Human immunodeficiency virus 1, MDR/MM, PBMC
[3] = tested on: Human immunodeficiency virus 1; experiment: Antiviral activity against HIV-1 MDR/B infected in human PHA-PBM cells assessed as inhibition of p24 Gag protein production; format: functional, organism-based; details: Human immunodeficiency virus 1, MDR/B, PBMC
[4] = tested on: Human immunodeficiency virus 1; experiment: Antiviral activity against HIV-1 MDR/JSL infected in human PHA-PBM cells assessed as inhibition of p24 Gag protein production; format: functional, organism-based; details: Human immunodeficiency virus 1, MDR/JSL, PBMC
[5] = tested on: Human immunodeficiency virus 1; experiment: Antiviral activity against HIV-1 MDR/C infected in human PHA-PBM cells assessed as inhibition of p24 Gag protein production; format: functional, organism-based; details: Human immunodeficiency virus 1, MDR/C, PBMC
[6] = tested on: Human immunodeficiency virus 1; experiment: Antiviral activity against wild type HIV-1 ERS104 pre infected in human PHA-PBM cells assessed as inhibition of p24 Gag protein production; format: functional, organism-based; details: Human immunodeficiency virus 1, ERS104pre, PBMC
[7] = tested on: Human immunodeficiency virus 1; experiment: Antiviral activity against HIV-1 MDR/TM infected in human PHA-PBM cells assessed as inhibition of p24 Gag protein production; format: functional, organism-based; details: Human immunodeficiency virus 1, MDR/TM, PBMC
[8] = tested on: Human immunodeficiency virus 1; experiment: Antiviral activity against HIV-1 MDR/G infected in human PHA-PBM cells assessed as inhibition of p24 Gag protein production; format: functional, organism-based; details: Human immunodeficiency virus 1, MDR/G, PBMC
Protease = Protease (Human immunodeficiency virus 1, UniProt Q9YQ12); experiment: Inhibition of HIV1 protease; format: single protein
Chain of Protease (Q9YQ12 whole entry): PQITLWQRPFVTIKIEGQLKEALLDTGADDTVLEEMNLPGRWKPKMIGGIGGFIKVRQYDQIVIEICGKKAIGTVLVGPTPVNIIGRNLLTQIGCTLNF

| SMILES | IC50 [1] [nM] | Ki (Protease) [nM] | further results |
| --- | --- | --- | --- |
| CC(C)CN(C[C@@H](O)[C@H](Cc1ccccc1)NC(=O)O[C@H]1CCOC1)S(=O)(=O)c1ccc(N)cc1 | 30 | – | – |
| COC(=O)N[C@H](C(=O)N[C@@H](Cc1ccccc1)[C@@H](O)CN(Cc1ccc(-c2ccccn2)cc1)NC(=O)[C@@H](NC(=O)OC)C(C)(C)C)C(C)(C)C [ATAZANAVIR] | – | – | EC50 [2]: 205 nM; EC50 [3]: 470 nM; EC50 [4]: 293 nM; EC50 [5]: 39 nM; EC50 [6]: 2.7 nM; EC50 [7]: 75 nM; EC50 [8]: 19 nM |
| CC(C)CN(C[C@@H](O)[C@H](Cc1ccccc1)NC(=O)O[C@H]1CCO[C@H]2OCC[C@H]21)S(=O)(=O)c1ccc(N)cc1 | 6.5 | 0.01 | – |
| CC(C)(C)NC(=O)[C@@H]1C[C@@H]2CCCC[C@@H]2CN1C[C@@H](O)[C@H](Cc1ccccc1)NC(=O)[C@H](CC(N)=O)NC(=O)c1ccc2ccccc2n1 | 15 | – | – |
| COc1ccc(S(=O)(=O)N(CC(C)C)C[C@@H](O)[C@H](Cc2ccccc2)NC(=O)O[C@H]2CCO[C@H]3CCC[C@H]32)cc1 | – | 1.43 | – |
| Cc1cccc(C)c1OCC(=O)N[C@@H](Cc1ccccc1)[C@@H](O)C[C@H](Cc1ccccc1)NC(=O)[C@H](C(C)C)N1CCCNC1=O [LOPINAVIR] | – | – | EC50 [3]: > 1000 nM; EC50 [4]: > 1000 nM |
| CC(C)CN(C[C@@H](O)[C@H](Cc1ccccc1)NC(=O)O[C@H]1CCO[C@H]2OCC[C@H]21)S(=O)(=O)c1ccc(CO)cc1 | 4.5 | 0.085 | – |
| COc1ccc(S(=O)(=O)N(CC(C)C)C[C@@H](O)[C@H](Cc2ccccc2)NC(=O)O[C@@H]2CCO[C@@H]3OCC[C@@H]32)cc1 | 19 | 0.068 | – |
| COc1ccc(S(=O)(=O)N(CC(C)C)C[C@@H](O)[C@H](Cc2ccccc2)NC(=O)O[C@H]2CCC[C@H]3OCC[C@@H]23)cc1 | 8 | 0.005 | – |
| COc1ccc(S(=O)(=O)N(CC(C)C)C[C@@H](O)[C@H](Cc2ccccc2)NC(=O)O[C@H]2CO[C@H]3OCC[C@H]3C2)cc1 | – | 0.11 | – |
| COc1ccc(S(=O)(=O)N(CC(C)C)C[C@@H](O)[C@H](Cc2ccccc2)NC(=O)O[C@H]2CCO[C@H]3COC[C@H]32)cc1 | > 1000 | 5.3 | – |
| COc1ccc(S(=O)(=O)N(CC(C)C)C[C@@H](O)[C@H](Cc2ccccc2)NC(=O)O[C@H]2CCC[C@H]3CCC[C@H]32)cc1 | > 1000 | 9 | – |
| COc1ccc(S(=O)(=O)N(CC(C)C)C[C@@H](O)[C@H](Cc2ccccc2)NC(=O)O[C@H]2CCO[C@H]3OCC[C@H]32)cc1 | 0.5 | 0.0027 | EC50 [2]: 5 nM; EC50 [3]: 14.5 nM; EC50 [4]: 27.5 nM; EC50 [5]: 3.7 nM; EC50 [6]: 1.9 nM; EC50 [7]: 27.5 nM; EC50 [8]: 2.6 nM |
